From patent US9187472B2 (AbbVie Inc., priority 2012, dated 2015)
pIC50: −log10 of the molar value.

test system: PC3 cells; test: NAMPT Cell Proliferation Assay; assay type: cell-based; details: 5 days incubation, cell viability by Cell Titer Glo
In short: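 Seed PC3 at 500 cells/well (RPMI, 10% HI-FBS), attach overnight; add compound, 10-fold series 10 μM → 1×10^−5 μM; incubate 5 d, 37° C/5% CO2; luminescent viability readout; fit % inhibition sigmoidally for IC50.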

| Structure (SMILES) | pIC50 |
| --- | --- |
| Cc1nc(C(=O)N2CCC(c3ccc(C(=O)NCc4ccn5ccnc5c4)cc3)CC2)c2n1CCCC2 [Example 1099, Example 1099 N-(imidazo[1,2-a]pyridin-7-ylmethyl)-4-{1-[(3-meth-5,6,7,8-tetrahydroimidazo[1,5-a]pyridin-1-yl)carbonyl]piperidin-4-yl}benzamide] | 7.81 |

same assay, conditions: Homo sapiens, PC-3, 120 h, 5 days incubation, cell viability by Cell Titer Glo

| Structure (SMILES) | pIC50 |
| --- | --- |
| O=C(NCc1ccn2ccnc2c1)Nc1ccc(C2CCN(C(=O)C3CCOCC3)CC2)cc1F [Example 1074, 1-{2-fluoro-4-[1-(tetrahydro-2H-pyran-4-ylcarbonyl)piperidin-4-yl]phenyl}-3-(imidazo[1,2-a]pyridin-7-ylmethyl)urea] | 7.84 |
| O=C(NCc1ccn2ccnc2c1)Nc1ccc(C2CCN(C(=O)c3ccccn3)CC2)cc1F [Example 1075, 1-{2-fluoro-4-[1-(pyridin-2-ylcarbonyl)piperidin-4-yl]phenyl}-3-(imidazo[1,2-a]pyridin-7-ylmethyl)urea] | 8.12 |
| N#Cc1ccccc1C(=O)N1CCC(c2ccc(NC(=O)NCc3ccn4ccnc4c3)c(F)c2)CC1 [Example 1076, 1-{4-[1-(2-cyanobenzoyl)piperidin-4-yl]-2-fluorophenyl}-3-(imidazo[1,2-a]pyridin-7-ylmethyl)urea] | 8.24 |
| CN(C)C(=O)N1CCC(c2ccc(C(=O)NCc3ccn4ccnc4c3)cc2)CC1 [Example 1077, 4-{4-[(imidazo[1,2-a]pyridin-7-ylmethyl)carbamoyl]phenyl}-N,N-dimethylpiperidine-1-carboxamide] | 7.16 |
| CC(C)C(=O)N1CCC(c2ccc(NC(=O)NCc3ccn4ccnc4c3)c(F)c2)CC1 [Example 1078, 1-{2-fluoro-4-[1-(2-methylpropanoyl)piperidin-4-yl]phenyl}-3-(imidazo[1,2-a]pyridin-7-ylmethyl)urea] | 8.12 |
| O=C(CC1CCCC1)Nc1ccc(C(=O)NCc2cn3ccnc3cc2F)cc1 [Example 1079, 4-[(cyclopentylacetyl)amino]-N-[(7-fluoroimidazo[1,2-a]pyridin-6-yl)methyl]benzamide] | 7.74 |
| CC(C)Cn1cc(-c2ccc(C(=O)NCc3cn4ccnc4cc3F)s2)cn1 [Example 1080, N-[(7-fluoroimidazo[1,2-a]pyridin-6-yl)methyl]-5-[1-(2-methylpropyl)-1H-pyrazol-4-yl]thiophene-2-carboxamide] | 8.47 |
| O=C(Cc1ccn2ccnc2c1)Nc1ccc(C2CCN(C(=O)c3ccccc3)CC2)cc1F [Example 1081, N-[4-(1-benzoylpiperidin-4-yl)-2-fluorophenyl]-2-(imidazo[1,2-a]pyridin-7-yl)acetamide] | 6.71 |
| CC(C)(CN1CCNCC1)Cn1cc(-c2ccc(C(=O)NCc3ccn4ccnc4c3)s2)cn1 [Example 1082, 5-{1-[2,2-dimethyl-3-(piperazin-1-yl)propyl]-1H-pyrazol-4-yl}-N-(imidazo[1,2-a]pyridin-7-ylmethyl)thiophene-2-carboxamide] | 8.66 |
| CC(C)(CN)Cn1cc(-c2ccc(C(=O)NCc3ccn4ccnc4c3)s2)cn1 [Example 1083, 5-[1-(3-amino-2,2-dimethylpropyl)-1H-pyrazol-4-yl]-N-(imidazo[1,2-a]pyridin-7-ylmethyl)thiophene-2-carboxamide] | 9.04 |
| O=C(NCc1ccn2ccnc2c1)c1ccc(C2CCN(C(=O)c3cnc(C4CC4)s3)CC2)cc1 [Example 1084, 4-{1-[(2-cyclopropyl-1,3-thiazol-5-yl)carbonyl]piperidin-4-yl}-N-(imidazo[1,2-a]pyridin-7-ylmethyl)benzamide] | 7.83 |
| O=C(NCc1ccn2ccnc2c1)c1ccc(C2CCN(C(=O)c3ccc4scnc4c3)CC2)cc1 [Example 1085, 4-[1-(1,3-benzothiazol-5-ylcarbonyl)piperidin-4-yl]-N-(imidazo[1,2-a]pyridin-7-ylmethyl)benzamide] | 7.59 |
| Cn1ncc2ccc(C(=O)N3CCC(c4ccc(C(=O)NCc5ccn6ccnc6c5)cc4)CC3)cc21 [Example 1086, N-(imidazo[1,2-a]pyridin-7-ylmethyl)-4-{1-[(1-methyl-1H-indazol-6-yl)carbonyl]piperidin-4-yl}benzamide] | 8.00 |
| Cc1nn(C)c(C(=O)N2CCC(c3ccc(C(=O)NCc4ccn5ccnc5c4)cc3)CC2)c1Cl [Example 1087, 4-{1-[(4-chloro-1,3-dimethyl-1H-pyrazol-5-yl)carbonyl]piperidin-4-yl}-N-(imidazo[1,2-a]pyridin-7-ylmethyl)benzamide] | 8.77 |
| CCc1ccc(C(=O)N2CCC(c3ccc(C(=O)NCc4ccn5ccnc5c4)cc3)CC2)nc1 [Example 1088, 4-{1-[(5-ethylpyridin-2-yl)carbonyl]piperidin-4-yl}-N-(imidazo[1,2-a]pyridin-7-ylmethyl)benzamide] | 7.46 |
| N#Cc1cnc(C(=O)N2CCC(c3ccc(C(=O)NCc4ccn5ccnc5c4)cc3)CC2)c(Cl)c1 [Example 1089, 4-{1-[(3-chloro-5-cyanopyridin-2-yl)carbonyl]piperidin-4-yl}-N-(imidazo[1,2-a]pyridin-7-ylmethyl)benzamide] | 8.08 |
| CC1CC(C#N)(C(=O)N2CCC(c3ccc(C(=O)NCc4ccn5ccnc5c4)cc3)CC2)C1 (stereo not shown) [Example 1090, 4-{1-[(1-cyano-3-methylcyclobutyl)carbonyl]piperidin-4-yl}-N-(imidazo[1,2-a]pyridin-7-ylmethyl)benzamide] | 8.27 |

| Structure (SMILES) | pIC50 |
| --- | --- |
| CCc1c(C(=O)N2CCC(c3ccc(C(=O)NCc4ccn5ccnc5c4)cc3)CC2)nnn1CC [Example 1091, 4-{1-[(1,5-diethyl-1H-1,2,3-triazol-4-yl)carbonyl]piperidin-4-yl}-N-(imidazo[1,2-a]pyridin-7-ylmethyl)benzamide] | 8.38 |
| COc1csc(C(=O)N2CCC(c3ccc(C(=O)NCc4ccn5ccnc5c4)cc3)CC2)c1 [Example 1092, N-(imidazo[1,2-a]pyridin-7-ylmethyl)-4-{1-[(4-methoxythiophen-2-yl)carbonyl]piperidin-4-yl}benzamide] | 7.75 |
| N#Cc1ccc(C(=O)N2CCC(c3ccc(C(=O)NCc4ccn5ccnc5c4)cc3)CC2)s1 [Example 1093, 4-{1-[(5-cyanothiophen-2-yl)carbonyl]piperidin-4-yl}-N-(imidazo[1,2-a]pyridin-7-ylmethyl)benzamide] | 6.25 |
| O=C(NCc1ccn2ccnc2c1)c1ccc(C2CCN(C(=O)c3ccc(C4CC4)cn3)CC2)cc1 [Example 1094, 4-{1-[(5-cyclopropylpyridin-2-yl)carbonyl]piperidin-4-yl}-N-(imidazo[1,2-a]pyridin-7-ylmethyl)benzamide] | 7.16 |
| N#Cc1cc(F)c(C(=O)N2CCC(c3ccc(C(=O)NCc4ccn5ccnc5c4)cc3)CC2)c(F)c1 [Example 1095, 4-[1-(4-cyano-2,6-difluorobenzoyl)piperidin-4-yl]-N-(imidazo[1,2-a]pyridin-7-ylmethyl)benzamide] | 8.35 |
| CCn1cc(C(=O)N2CCC(c3ccc(C(=O)NCc4ccn5ccnc5c4)cc3)CC2)c(C(C)C)n1 [Example 1096, 4-(1-{[1-ethyl-3-(propan-2-yl)-1H-pyrazol-4-yl]carbonyl}piperidin-4-yl)-N-(imidazo[1,2-a]pyridin-7-ylmethyl)benzamide] | 8.68 |
| CC(C)n1ccc(CC(=O)N2CCC(c3ccc(C(=O)NCc4ccn5ccnc5c4)cc3)CC2)n1 [Example 1097, N-(imidazo[1,2-a]pyridin-7-ylmethyl)-4-(1-{[1-(propan-2-yl)-1H-pyrazol-3-yl]acetyl}piperidin-4-yl)benzamide] | 7.19 |
| O=C(NCc1ccn2ccnc2c1)c1ccc(C2CCN(C(=O)c3coc4ccccc34)CC2)cc1 [Example 1098, 4-[1-(1-benzofuran-3-ylcarbonyl)piperidin-4-yl]-N-(imidazo[1,2-a]pyridin-7-ylmethyl)benzamide] | 8.02 |
| COc1cc(C(=O)N2CCC(c3ccc(C(=O)NCc4ccn5ccnc5c4)cc3)CC2)ncc1C [Example 1100, N-(imidazo[1,2-a]pyridin-7-ylmethyl)-4-{1-[(4-methoxy-5-methylpyridin-2-yl)carbonyl]piperidin-4-yl}benzamide] | 8.06 |
| O=C(NCc1ccn2ccnc2c1)c1ccc(C2CCN(C(=O)c3ccnn3C3CCCC3)CC2)cc1 [Example 1101, 4-{1-[(1-cyclopentyl-1H-pyrazol-5-yl)carbonyl]piperidin-4-yl}-N-(imidazo[1,2-a]pyridin-7-ylmethyl)benzamide] | 8.69 |
| O=C(NCc1ccn2ccnc2c1)c1ccc(C2CCN(C(=O)c3scnc3Cl)CC2)cc1 [Example 1102, 4-{1-[(4-chloro-1,3-thiazol-5-yl)carbonyl]piperidin-4-yl}-N-(imidazo[1,2-a]pyridin-7-ylmethyl)benzamide] | 8.75 |
| N#Cc1ccsc1C(=O)N1CCC(c2ccc(C(=O)NCc3ccn4ccnc4c3)cc2)CC1 [Example 1103, 4-{1-[(3-cyanothiophen-2-yl)carbonyl]piperidin-4-yl}-N-(imidazo[1,2-a]pyridin-7-ylmethyl)benzamide] | 8.37 |
| CC(C)c1ncncc1C(=O)N1CCC(c2ccc(C(=O)NCc3ccn4ccnc4c3)cc2)CC1 [Example 1104, N-(imidazo[1,2-a]pyridin-7-ylmethyl)-4-(1-{[4-(propan-2-yl)pyrimidin-5-yl]carbonyl}piperidin-4-yl)benzamide] | 8.16 |
| CCCc1c(C(=O)N2CCC(c3ccc(C(=O)NCc4ccn5ccnc5c4)cc3)CC2)cnn1C [Example 1105, N-(imidazo[1,2-a]pyridin-7-ylmethyl)-4-{1-[(1-methyl-5-propyl-1H-pyrazol-4-yl)carbonyl]piperidin-4-yl}benzamide] | 8.59 |
| CC(C(=O)N1CCC(c2ccc(C(=O)NCc3ccn4ccnc4c3)cc2)CC1)n1ccc(C2CC2)n1 (stereo not shown) [Example 1106, 4-{1-[2-(3-cyclopropyl-1H-pyrazol-1-yl)propanoyl]piperidin-4-yl}-N-(imidazo[1,2-a]pyridin-7-ylmethyl)benzamide] | 7.56 |
| CC1Cc2cccc(C(=O)N3CCC(c4ccc(C(=O)NCc5ccn6ccnc6c5)cc4)CC3)c2O1 (stereo not shown) [Example 1107, N-(imidazo[1,2-a]pyridin-7-ylmethyl)-4-{1-[(2-methyl-2,3-dihydro-1-benzofuran-7-yl)carbonyl]piperidin-4-yl}benzamide] | 8.65 |
